# Bridges are numbered along the chain shown (N, C = ends). Where no end group is shown, it is not given here.
# How the values were obtained:
# Format in all cases: cell-based
# [1] = system: Rhizoctonia solani; experiment: Anti-filamentous fungal activity, inhibitory circle on agar plate; settings: 1 μl sample spotted, culture 24 hours at 25° C.
# Description: Rhizoctonia solani microorganisms were cultured in a potato dextrose (PD) medium (Difco) at 25° C. for 5 days, and then their hyphae were cut thin with a homogenizer. From the resulting suspension of thin hyphae, a clump of hyphae was removed, and the hyphae were recovered by centrifugation and adjusted to a density of 10^5 hyphae/ml with PD medium. A PDA medium was added in a solution form to 250 μl hypha suspension to form 5 ml suspension which was then spread on a Petri dish (diameter, 8.4 cm). After the medium was solidified, 1 μl sample for activity evaluation was spotted thereon followed by culture for 24 hours at 25° C., and the size of an inhibitory circle formed around the spot was measured.
# The above-described method of evaluating anti-Rhizoctonia solani activity was used to evaluate the activity of the 4 synthetic proteins.
# [2] = system: Phytophthora infestance; settings: V8 juice medium, 20° C., 50 μg protein spotted
# [3] = system: Escherichia coli
# [4] = system: Staphylococcus aureus
# [5] = system: Pyricularia oryzae; settings: 50 μg protein spotted
# [6] = system: Septoria tritici
# [7] = system: Rhizoctonia solani Kuhn
Substance,Inhibitory circle [1],Inhibitory circle [2],Inhibitory circle [3],Inhibitory circle [4],Inhibitory circle [5],Inhibitory circle [6],Inhibitory circle [7]
"SP4080: protein consisting of 36 amino acid residues, SEQ ID NO:7, from Coconut rhinoceros beetle; chemically synthesized with disulfide linkages (ELPKLPDDKVLIRSRSNCPKGKVWNGFDCKSPFAFS; disulfide 18-29 (inferred))",⊚ (Inhibitory circle of 4 mm or more),◯ (Inhibitory circle of less than 4 mm),⊚ (key: ⊚: Inhibitory circle of 4 mm or more; ◯: Inhibitory circle of less than 4 mm; X: No activity),⊚ (key: ⊚: Inhibitory circle of 4 mm or more; ◯: Inhibitory circle of less than 4 mm; X: No activity),◯ (Inhibitory circle of less than 4 mm),◯ (key: ⊚: Inhibitory circle of 4 mm or more; ◯: Inhibitory circle of less than 4 mm; X: No activity),⊚ (key: ⊚: Inhibitory circle of 4 mm or more; ◯: Inhibitory circle of less than 4 mm; X: No activity)
SP4266: protein consisting of 38 amino acid residues in total represented by SEQ ID NO:8; chemically synthesized (DAELPKLPDDKVLIRSRSNCPKGKVWNGFDCKSPFAFS; Oryctes rhinoceros),⊚ (Inhibitory circle of 4 mm or more),–,–,–,–,–,–
SP4337: protein consisting of 38 amino acid residues in total represented by SEQ ID NO:9; chemically synthesized (ELPKLPDDKVLIRSRSNCPKGKVWNGFDCKSPFAFSKK; Oryctes rhinoceros),⊚ (Inhibitory circle of 4 mm or more),–,–,–,–,–,–
SP4523: protein consisting of 40 amino acid residues in total represented by SEQ ID NO:10; chemically synthesized (DAELPKLPDDKVLIRSRSNCPKGKVWNGFDCKSPFAFSKK; Oryctes rhinoceros),⊚ (Inhibitory circle of 4 mm or more),–,–,–,–,–,–

# Reference: patent US7041808B2 (priority 2001, dated 2006)
